Laboratory results from patent US20250304973A1, “HIGH-AFFINITY THROMBIN APTAMERS AND METHODS OF USE” (Ayass Bioscience LLC, priority 2024, published 2025).
{CholTEG} = cholesterol attached through a triethylene glycol linker; {Sp18} = hexaethylene glycol (Sp18, PEG) spacer; {Sp9} = triethylene glycol (Sp9, TEG) spacer

Legend:
clot-bound thrombin = details: in vivo studies, literature; cited from earlier work
human citrated plasma [1] = test: Prothrombin time (PT) assay in human citrated plasma; assay type: biochemical; details: for impact of modified aptamer on PT: 2 uM modified aptamer, 1 hour room temperature plus 2-hour incubation, versus unmodified aptamer; for increase in PT time: 2 uM, 2 h, versus untreated control
Method: (§1) Plasma was prepared by centrifugation for 10 min at 2000×g. In vitro activity assays were performed on ACLTOP analyzer manufactured by Instrumentation Laboratory, which is a type of coagulation analyzer commonly used in clinical laboratories to measure clotting times and assess coagulation parameters. The ACLTOP analyzer is designed to perform a wide range of coagulation tests, including Factor II activity, prothrombin time (PT), activated partial thromboplastin time (APTT), fibrinogen, and other related assays. ACLTOP analyzer uses HemosIL reagents developed by Instrumentation Laboratory company (Bedford, MA, USA) to perform coagulation tests.
PT time was measured using RecombiPlasTin 2G for quantitative determination in human citrated plasma of PT and Fibrinogen on an ACLTOP coagulation analyzer manufactured by Instrumentation Laboratory (Bedford, MA, USA). To assess the activity of the aptamers in a dose-dependent manner in whole blood, human blood samples were collected in citrate-treated tubes. The blood samples were then incubated at room temperature for 2 h in the absence or presence of varying concentrations of the thrombin aptamers. To measure the Prothrombin Time (PT) on the ACLTOP coagulation analyzer, plasma was obtained by centrifuging the samples at 1500×g for 10 min at 4° C. For the dose dependence study, concentrations of 1 uM, 2 uM, 3 uM, and 4 uM of AYA1809002 and AYA1809004 were utilized.
(§2) Modified aptamers chemically crosslinked with TAG, PEG, and cholesterol entities at the 3′ end, were purchased from IDT (Integrated DNA Technologies, Coralville, IA, USA). The impact of modified AYA1809002 and AYA1809004 aptamers on Factor II activity, PT, and APTT was evaluated using the same protocol as was used for the unmodified aptamers. Additionally, the potential for reversal was investigated using the respective reverse complement for each aptamer.

Factor II activity = target: T1, Factor II activity (Homo sapiens, UniProt P00734); test: Factor II activity assay in human citrated plasma (ACLTOP analyzer); assay type: biochemical; details: for impact of modified aptamer on Factor II activity: 2 uM modified aptamer, 1 hour room temperature plus 2-hour incubation, versus unmodified aptamer; for reduction in Factor II activity: 2 uM, 2 h, normalized against untreated control
T1 construct: tissue Rockland Immunochemicals, Inc R214-0050; host or cells: human citrated plasma / whole blood
Method: as §1
Factor II activity was measured using human plasma immunodepleted of Factor II for the quantitative determination of Factor II activity in citrated plasma based on the prothrombin time (PT) assay, for which an ACLTOP coagulation analyzer manufactured by Instrumentation Laboratory (Bedford, MA, USA) was used. To evaluate the dose-dependent activity of the aptamers in whole blood, human blood samples were collected in citrate-treated tubes. Subsequently, the blood samples were incubated at room temperature for 2 h in both the absence and presence of various concentrations of thrombin aptamers. To measure the Factor II activity using the ACLTOP coagulation analyzer, plasma was separated from the cells by centrifugation at 1500×g for 10 min at 4° C. For the dose-dependent study, concentrations of 1 uM, 2 uM, 3 uM, and 4 uM of AYA1809002 and AYA1809004 were utilized.
as §2

human citrated plasma [2] = test: Activated partial thromboplastin time (APTT) assay in human citrated plasma; assay type: biochemical; details: for impact of modified aptamer on APTT: 2 uM modified aptamer, 1 hour room temperature plus 2-hour incubation, versus unmodified aptamer; for increase in APTT time: 2 uM, 2 h, versus untreated control
Method: as §1, with “137. Sterile human blood in sodium citrate was purchased from the Rockland Immuno- chemicals, Inc (cat #R214-0050, Pottstown, PA 19464, USA). Plasma” for “Plasma”
140. […] APTT time was measured using the synthetic phospholipid reagent SynthASIil for quantitative determination in human citrated plasma on an ACLTOP coagulation analyzer manufactured by Instrumentation Laboratory (Bed- ford, MA, USA).
as §2, with “146. Modified” for “Modified”

rat whole blood = test: Factor II activity, PT, APPT and TT in rat whole blood; assay type: biochemical
[3] = target: T2, human alpha-thrombin protein (Homo sapiens, UniProt P00734); test: ELISA-based binding assay of biotinylated thrombin aptamers to thrombin protein; details: top nine enriched aptamers, biotinylated; FIG. 2A
T2 construct: Native human alpha-thrombin protein; purchased ThermoFisher Scientific RP-43100; host or cells: native protein
Method: 135. Native human alpha-thrombin protein (ThermoFisher Scientific, cat #RP-43100, Waltham, MA, USA) was added to each well of a 96-well plate (Nunc MaxiSorp flat-bottom 96-well plates, ThermoFisher Scientific, cat #44-2404-21, Waltham, MA, USA) at a concentration of 250 nM in Tris-buffered saline with a volume of 100 μL per well. The plate was then incubated at 4° C. for 16 h to allow the wells to become coated with thrombin. After removing the thrombin solution, the wells were washed and blocked using blocking buffer (20 mM Tris, 150 mM NaCl pH 7.5, 2% BSA, 0.1% Tween 20 and 100 μg/mL of sheared salmon sperm DNA) for a 1 h duration. Next, biotinylated aptamers at the indicated concentrations in a volume of 100 μL were added to the wells in an incubation buffer (20 mM Tris, 150 mM NaCl pH 7.5, 0.1% BSA, 0.1% Tween 20 and 100 μg/mL of sheared salmon sperm DNA) and incubated for 1 h at room temperature. In the competition binding assay, unlabeled aptamers were added along with the biotinylated aptamers, with the unlabeled aptamers being present in a 100-fold excess compared to the biotinylated aptamers. Following three washing steps with wash buffer (20 mM Tris, 150 mM NaCl pH 7.5, 0.1% BSA and 0.1% Tween 20), streptavidin-HRP (ThermoFisher Scientific, cat #21130, Waltham, MA, USA) was added at a dilution of 1:5000 in the incubation buffer. The plate was washed again three times to remove any unbound reagents. The bound biotinylated aptamers were then detected using 3,3′,5,5′-Tetramethylbenzidine (TMB) substrate (ThermoFisher Scientific, cat #34021, Waltham, MA, USA) following the manufacturer's instructions.

[4] = Table 3, existing solution; cited from earlier work
[5] = Table 3, existing solution; cited from earlier work; remark: listed apart in the source
[6] = in clinical trials; cited from earlier work
[7] = requires refrigeration; cited from earlier work
[8] = target: thrombin over other serine proteases (Homo sapiens, UniProt P00734); details: Table 3, existing solution; cited from earlier work
[9] = system: modified AYA1809002 and AYA1809004 aptamers; test: Reversal potential of reverse complement on modified aptamers in human citrated plasma; assay type: biochemical; details: 5 μM reverse complement strand, additional 2-hour incubation
Method: as §2, with “146. Modified” for “Modified”

AYA1809002 = test: Restoration of Factor II activity and PT time with reverse complement in whole blood; assay type: biochemical, human; details: 1 uM AYA1809002 2 h room temperature in whole blood, then reverse complement; even at 1:1 ratio
Method: 144. Citrated blood collected from a donor was incubated in the absence or presence of 1 uM AYA1809002 at room temperature. After 2 h incubation, the indicated concentration of the reverse complement strand was added to the citrated blood sample. After an additional incubation time of 2 h, plasma was obtained through centrifugation. Factor II activity was measured using human plasma immunodepleted of Factor II for the quantitative determination of Factor II activity in citrated plasma based on the prothrombin time (PT) assay, for which an ACLTOP coagulation analyzer manufactured by Instrumentation Laboratory (Bedford, MA, USA) was used. The PT time was measured using RecombiPlasTin 2G for quantitative determination in human citrated plasma of PT and Fibrinogen on an ACLTOP coagulation analyzer manufactured by Instrumentation Laboratory (Bedford, MA, USA).

heparin
inhibition of clot-bound thrombin (clot-bound thrombin): 35%

PEG-modified AYA1809004: AYA1809004 sequence with /3Sp18/ at the 3′ end (DNA TCGTCAAGGTACGGTTGGGGGGGTGGGTGTTGACGTTGAA; DNA, 3' {Sp18}, backbone and methylation of C not given here)
impact of modified aptamer on PT (human citrated plasma [1]): slight increase | impact of modified aptamer on Factor II activity (Factor II activity): noticeable inhibition | impact of modified aptamer on APTT (human citrated plasma [2]): slight increase

TEG-modified AYA1809004: AYA1809004 sequence with /3Sp9/ at the 3′ end (DNA TCGTCAAGGTACGGTTGGGGGGGTGGGTGTTGACGTTGAA; DNA, 3' {Sp9}, backbone and methylation of C not given here)
impact of modified aptamer on PT (human citrated plasma [1]): slight increase | impact of modified aptamer on Factor II activity (Factor II activity): noticeable inhibition | impact of modified aptamer on APTT (human citrated plasma [2]): slight increase

PEG-modified AYA1809002: AYA1809002 sequence with /3Sp18/ at the 3′ end (DNA GCGGTGTTGCTGGGGTTGGGAGGTTGGAGGAAGCAATCGC; DNA, 3' {Sp18}, backbone and methylation of C not given here)
APPT in rat whole blood (rat whole blood; dose-dependent manner): extend | Factor II activity in rat whole blood (rat whole blood; dose-dependent manner): inhibit | PT in rat whole blood (rat whole blood; dose-dependent manner): extend | TT in rat whole blood (rat whole blood; dose-dependent manner): extend

cholesterol-modified AYA1809004: AYA1809004 sequence with /3CholTEG/ at the 3′ end; Table 2 misprints the name (DNA TCGTCAAGGTACGGTTGGGGGGGTGGGTGTTGACGTTGAA; DNA, 3' {CholTEG}, backbone and methylation of C not given here)
impact of modified aptamer on PT (human citrated plasma [1]): no significant impact | impact of modified aptamer on Factor II activity (Factor II activity): no significant impact | impact of modified aptamer on APTT (human citrated plasma [2]): no significant impact

AYA1809007: ssDNA thrombin aptamer AGGGGCTCTAGGGTGGGTAGGATGGTGAGACCGCAGCGT (DNA, backbone and methylation of C not given here; further chemistry not fully specified)
increase in PT time (human citrated plasma [1]): two-fold increases | reduction in Factor II activity (Factor II activity): more than 75% | increase in APTT time (human citrated plasma [2]): three-fold increase | binding to immobilized human thrombin (absorbance at 450 nm) [3]: strong binding capabilities

dabigatran
increase in PT time (human citrated plasma [1]): two-fold increases | Onset of Action: peak effect [4]: Peak effect 2-3 hours | Half-life [5]: Half-life of 12-17 hours | Renal Clearance [5]: ~80% | life-threatening bleeding risks [6]: bleeding risks (′ 3.3% | reduction in Factor II activity (Factor II activity): 80% | shelf life [7]: shelf life 36 months | increase in APTT time (human citrated plasma [2]): three-fold increase | selectivity [8]: ~300-fold selectivity

HD1: first anti-thrombin DNA aptamer, 15-mer 5′-GGTTGGTGTGGTTGG-3′ binding exosite I (DNA, backbone not given here)
inhibition of clot-bound thrombin (clot-bound thrombin): > 80%

reverse complement of AYA1809004: aptamer antidote TTCAACGTCAACACCCACCCCCCCAACCGTACCTTGACGA (DNA, backbone and methylation of C not given here)
reversal of modified aptamers' effects on Factor II activity, PT and APTT [9]: effectively restored

reverse complement of AYA1809002: aptamer antidote GCGATTGCTTCCTCCAACCTCCCAACCCCAGCAACACCGC (DNA, backbone and methylation of C not given here)
reversal of modified aptamers' effects on Factor II activity, PT and APTT [9]: effectively reverses the observed effects | neutralization of aptamer effects in rat whole blood (rat whole blood; reverse complement strand): neutralized the observed effects | restoration of Factor II activity by reverse complement (AYA1809002): effectively restored | restoration of PT time by reverse complement (AYA1809002): effectively restored
